Data on eleven compounds can be found in patent US4157392A, “Pharmacologically active substituted 1,2,4-triazines” (Diamond Shamrock Corporation, priority 1978, dated 1979).

Read-outs that look alike come from different tables or passages of the source.

For assay [1], the system named is Spontaneously hypertensive rats. As to the kind of experiment: SHR Assay (anti-hypertensive). It counts as in vivo, rat (spontaneously hypertensive). The conditions noted are these: dose 100, oral. The protocol: Spontaneously hypertensive rats, 12 to 16 weeks of age, were used in this assay. Systolic blood pressures were determined by the tail cuff method, utilizing capacitance transducers for the detection of pressure, an aneroid manometer for measuring pressure, and an oscilloscope for visualizing the disappearance and/or appearance of the pressure pulse. Heart rate was measured by a biotachometer. Groups of five rats having systolic blood pressures of 170 mmHg or greater were chosen and the test compounds administered at the doses indicated below (oral) as a solution or suspension in 0.25% methylcellulose (MC) at a volume of 5 ml/kg. One group served as the control and received the vehicle. Twenty-four hours after dosing, systolic blood pressure and heart rate were recorded. A second dose of compound was administered and blood pressure and heart rate determined at 4 and 24 hours after the second dose.

Assay [2] deals with phenylquinone writhing in mice. As to the kind of experiment: Phenylquinone Writhing Assay (analgesia). It counts as in vivo, mouse (Carworth CF1 male mice). The conditions noted are these: for Phenylquinone Writhing Assay (% Control), percent analgesia / responders at 100 mg/kg: 100 mg/kg oral; for responders at 100 mg/kg / responders at 12.5 mg/kg / responders at 25 mg/kg / responders at 50 mg/kg / responders at 10 mg/kg / responders at 30 mg/kg: Mus musculus, po, read-out: Phenylquinone Writhing Assay (% Control), percent analgesia; for responders at 12.5 mg/kg: 12.5 mg/kg oral; for responders at 25 mg/kg: 25 mg/kg oral; for responders at 50 mg/kg: 50 mg/kg oral; for responders at 10 mg/kg: 10 mg/kg oral; for responders at 30 mg/kg: 30 mg/kg oral. In short, it runs like this: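 Male CF1 mice (ten per group) dosed orally in 0.25% methylcellulose, then challenged i.p. with 0.02% phenylquinone at 15, 30, 60 or 120 min post-dose. Mice showing no writhing over 10 min count as protected; percent analgesia = number protected ×10.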

The subject of assay [3] is carrageenin-induced edema in the hind paw of a rat. As to the kind of experiment: Carrageenin Assay (carrageenin-induced edema, hind paw). To be noted: 1 h before carrageenin, edema at 3 h, compared to phenylbutazone control values; for inhibition in vivo at 200 mg/kg: 200 mg/kg oral. The format is in vivo, rat (male, Long Evans strain). Summed up:
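Male Long Evans rats (130-200 g) dosed orally 1 h before intraplantar 0.05 ml 1.0 percent carrageenin into left hind paw. Edema volume by water-displacement differential paw volume at 3 h; expressed as percent reduction versus phenylbutazone control.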
In general terms: The carrageenan paw model is a standard test of acute inflammation.

In assay [4] the test system is central nervous system activity in mice. In words: Neuropharmacological Profile. It counts as in vivo, mouse (white male Carworth Farm Strain CF-1). The method, then:
The central nervous system activity of certain of the preferred compounds in accordance with the present invention were determined using the following neuropharmacological profile assay procedures.
White male mice of the Carworth Farm Strain (CF-1) weighing 18-22 grams were used in these determinations. […] Intraperitoneal injections were administered in logarithmic progression and sequentially. The dose levels employed routinely are 10, 30, 100, and 300 mg/kg, using four male mice at each dose level. Since this test was conducted in a sequential manner, the first dose administered was at 300 mg/kg. The mice were injected at this dose level and observed for gross changes produced by the drug, such as behavioral, neurological, autonomic, and toxic effects.
The animals were observed continuously for one hour and if no signs of pharmacological or toxicological activity were present at the end of the first hour, they were intermittently checked for activity every fifteen minutes thereafter for two consecutive hours. […] Subsequent dose levels below 300 mg/kg were not administered in this case. Alternatively, if demonstrable pharmacological changes occurred within the first three hours after administration of the drug at 300 mg/kg, the subsequent doses were administered and the animals observed for changes in overt behavior. The observation period begins immediately following the injection and the animals are then continuously observed for three hours and intermittently checked thereafter for forty-eight hours. The animals were observed and signs and symptoms of pharmacological activity were recorded continuously until no further symptoms developed and until the symptoms that had appeared were no longer present. […] It was very important that the animals were free to move about for evaluation of spacial orientation, alertness, and spontaneous motor activity. The animals were systematically observed and manipulated to measure the onset, peak effect, duration and character of drug action.
The major characteristics observed relative to central nervous system activity for the compounds indicated are summarized in the following Table IV.

In assay [5] the test system is yeast induced fever. As to the kind of experiment: Antipyretic Assay (yeast induced fever). It counts as in vivo. To be noted: for temps. at 191/2 hrs. / temps. at 18 hrs. (Test Compounds Administered) / temps. at 0 hr.: 100 mg/kg; for temps. at 191/2 hrs.: 1 1/2 hrs. after administration; for temps. at 18 hrs. (Test Compounds Administered): at time of administration; for temps. at 0 hr.: before yeast fever and compound. The protocol:
As indicated previously, certain of the compounds of the invention also display excellent antipyretic activity. […] Antipyretic activity was measured utilizing the conventional yeast induced fever assay procedure (15% yeast solution injected at two sites).

Assay [6] relates to adjuvant-induced arthritis, hind paw of the rat. In words: Adjuvant-Arthritis Assay. It counts as in vivo.
Where [7] appears, read: 300,100,30 mg/kg intraperitoneal.
The mark [8] stands for this setting: Rattus norvegicus, read-out: % Reduction of Edema.

With “3-Methylhydrazino-5-Phenyl-1,2,4-Triazine [Example 3A]”, the “Mean Drop (systolic blood pressure)” value was determined as 0 mm/Hg in assay [1] (4 hr.), 49 mm/Hg in assay [1] (24 hr.), 56 mm/Hg in assay [1] (second 4 hr. column (after second dose)) and 92 mm/Hg in assay [1] (second 24 hr column (after second dose)). For the same compound, the “Phenylquinone Writhing Assay (% Control), percent analgesia” value stood at 60% in assay [2] (15 Min.), 30% in assay [2] (30 Min.) and 30% in assay [2] (60 Min). For the same compound, in assay [3] (100 mg/kg oral), the “% Reduction of Edema” value is listed as 76%.
Turning to `COc1nnc(-c2ccccc2)c(-c2ccccc2)n1` [Example 48, 3-methoxy-5,6-diphenyl-1,2,4-triazine], the “CNS Activity” value in assay [4] (setting [7]) is given as “Muscle Relaxant”. For the same compound, in assay [3] (setting [8]), the inhibition in vivo at 200 mg/kg came to 17%.
For the compound `CN(CCO)c1nncc(-c2ccccc2)n1` [Example 73], in assay [4] (300,100 mg/kg intraperitoneal), the “CNS Activity” value was “Hypnotic”. Besides, the responders at 100 mg/kg in assay [2] (0.25 h, 15 Min.) amounted to 10%.
Regarding `CC(=O)Oc1ccccc1C(=O)O` [Aspirin, reference compound], in assay [5], the “temps. at 191/2 hrs.” value worked out at 37.8, the “temps. at 18 hrs. (Test Compounds Administered)” value was determined as 38.8 and the “temps. at 0 hr.” value is given as 38.0.
For `COc1nncc(-c2ccccc2)n1` [Example 2, 3-methoxy-5-phenyl-1,2,4-triazine], the responders at 12.5 mg/kg in assay [2] (0.25 h, 15 Min.) came out at 10%; in assay [2] (0.5 h, 30 Min.), 30%; in assay [2] (1 h, 60 Min), 30%. Further, the responders at 25 mg/kg worked out at 40% in assay [2] (0.25 h, 15 Min.); 60% in assay [2] (0.5 h, 30 Min.); 50% in assay [2] (1 h, 60 Min). For the same compound, the responders at 50 mg/kg amounted to 90% in assay [2] (0.25 h, 15 Min.); 80% in assay [2] (0.5 h, 30 Min.); 70% in assay [2] (1 h, 60 Min). Also, the “Adjuvant-Arthritis Assay (% Reduction)” value is on record as 39% in assay [6] (40 mg/kg oral once daily, Day 3, developing disease); 23% in assay [6] (40 mg/kg oral once daily, Day 10, developing disease); 0% in assay [6] (40 mg/kg oral once daily, Day 17, developing disease); 40% in assay [6] (80 mg/kg oral once daily, Day 3, developing disease); 18% in assay [6] (80 mg/kg oral once daily, Day 10, developing disease); 0% in assay [6] (80 mg/kg oral once daily, Day 17, developing disease). Moreover, the “Adjuvant-Arthritis Assay (% Reduction)” value in assay [6] (120 mg/kg oral once daily, Day 3, developing disease) came out at 30%; in assay [6] (120 mg/kg oral once daily, Day 10, developing disease), 13%; in assay [6] (120 mg/kg oral once daily, Day 17, developing disease) it was 21%. In addition, in assay [5], the “temps. at 191/2 hrs.” value turned out to be 35.3. In addition, the “temps. at 18 hrs. (Test Compounds Administered)” value in assay [5] is on record as 39.0. Moreover, the “temps. at 0 hr.” value in assay [5] is on record as 38.1. In addition, the antipyretic activity result in assay [5] (compared to aspirin) is “comparable in activity to aspirin”. The inhibition in vivo at 200 mg/kg in assay [3] (setting [8]) stood at 86%.
`C=CCOc1nnc(C)c(C)n1` [Example 11, 3-allyloxy-5,6-dimethyl-1,2,4-triazine]: the “CNS Activity” value in assay [4] (300,100 mg/kg intraperitoneal) is listed as “Hypnotic”. The responders at 100 mg/kg in assay [2] (0.5 h, 30 Min.) was 30%. Besides, the inhibition in vivo at 200 mg/kg in assay [3] (setting [8]) was 63%.
Consider `CCCCOc1nccnn1` [Example 65, 3-n-butoxy-1,2,4-triazine], for which, in assay [4] (setting [7]), the “CNS Activity” value is recorded as “Antidepressant”. For the same compound, the responders at 50 mg/kg in assay [2] (0.5 h, 30 Min.) came out at 10%.
As for `Cc1nnc(NN)nc1C` [Example 25, 3-hydrazino-5,6-dimethyl-1,2,4-triazine], the “CNS Activity” value in assay [4] (300,100,30,10 mg/kg intraperitoneal) is reported as “Antidepressant”. For the same compound, the responders at 10 mg/kg in assay [2] (0.25 h, 15 Min.) is 20%. For the same compound, in assay [2] (0.5 h, 30 Min.), the responders at 10 mg/kg amounted to 10%, the responders at 12.5 mg/kg was found to be 20% and the responders at 25 mg/kg was found to be 90%. In addition, in assay [3] (Rattus norvegicus, 40 mg/kg oral, read-out: % Reduction of Edema), the inhibition in vivo at 40 mg/kg is 46%.
As to `CSc1nncc(-c2cccc(C(F)(F)F)c2)n1` [Example 19, 3-methylthio-5-(3'-trifluoromethylphenyl)-1,2,4-triazine], the “CNS Activity” value in assay [4] (300,100,30,10,3 mg/kg intraperitoneal) was “Sedative”. Further, the responders at 30 mg/kg in assay [2] (0.5 h, 30 Min.) turned out to be 20%. Further, the inhibition in vivo at 200 mg/kg in assay [3] (setting [8]) came to 51%.
As for `COc1nncc(-c2ccco2)n1` [Example 20, 3-methoxy-5-(2'-furyl)-1,2,4-triazine], the responders at 30 mg/kg in assay [2] (0.5 h, 30 Min.) came out at 10%. Besides, the inhibition in vivo at 175 mg/kg in assay [3] (Rattus norvegicus, 175 mg/kg oral, read-out: % Reduction of Edema) amounted to 70%.
Turning to `COc1ccc(-c2cnnc(SC)n2)cc1` [Example 44, 3-methylthio-5-(4'-methoxyphenyl)-1,2,4-triazine], the responders at 100 mg/kg was found to be 10% in assay [2] (0.25 h, 15 Min.); 10% in assay [2] (0.5 h, 30 Min.); 20% in assay [2] (1 h, 60 Min). Besides, the inhibition in vivo at 200 mg/kg in assay [3] (setting [8]) was 18%.
